We go through seven molecules from patent US20230159463A1, “BENZONITRIC HETEROCYCLIC COMPOUND, PREPARATION METHOD THEREFOR AND USE THEREOF” (SHANGHAI ZHONGZE THERAPEUTICS, CO. LTD., priority 2020, published 2023).

The IC50 is the midpoint of a concentration-inhibition curve. A higher IC50 goes with weaker potency.

The target of one data set is T1, HDAC1 (Homo sapiens, UniProt Q13547).
T1 construct: purchased Biovision Company
As to the kind of experiment: HDAC1 inhibitor screening kit (Biovision), in vitro inhibitory activity. The class given is biochemical. The protocol: (§1) The in vitro inhibitory activity of histone deacetylase of the compound was determined according to the instructions of HDAC1 and HDAC6 inhibitor screening kit (Biovision Company).

The subject of the next data set is glioma cell line U-87MG. The data set is described as follows: In vitro anti-proliferative activity (CCK8), U-87MG. The class given is cell-based. The conditions noted are these: Homo sapiens, read-out: U-87MG (Glioma) Inh % in 10 μM.
In data set [1] the test system is MRC-5 human normal embryo lung fibroblast. As to the kind of experiment: In vitro anti-proliferative activity (CCK8), MRC-5 normal cells. As to conditions: read-out: MRC-5 (Normal cell line) Inh % in 10 μM. The data set is classed as cell-based.
The next data set has as its target T2, hERG potassium channels (Homo sapiens, UniProt Q12809).
T2 construct: expressed in transfected cells
The data set is described as follows: hERG potassium channel whole-cell patch clamp. The class given is cell-based. As to conditions: hERG-HEK293 cells, IKr current. The source says: Whole-cell patch clamp technique was used to record the changes of hERG current (IKr) after different concentrations of compounds acted on HEK293 cells (hERG-HEK293 steady-state cells) expressing hERG potassium channels to study the half inhibitory concentration (IC50) of the above compounds on IKr.

A further data set deals with T3, HDAC6 (Homo sapiens, UniProt Q9UBN7).
T3 construct: purchased Biovision Company
T3 sequence (Q9UBN7 1-1215): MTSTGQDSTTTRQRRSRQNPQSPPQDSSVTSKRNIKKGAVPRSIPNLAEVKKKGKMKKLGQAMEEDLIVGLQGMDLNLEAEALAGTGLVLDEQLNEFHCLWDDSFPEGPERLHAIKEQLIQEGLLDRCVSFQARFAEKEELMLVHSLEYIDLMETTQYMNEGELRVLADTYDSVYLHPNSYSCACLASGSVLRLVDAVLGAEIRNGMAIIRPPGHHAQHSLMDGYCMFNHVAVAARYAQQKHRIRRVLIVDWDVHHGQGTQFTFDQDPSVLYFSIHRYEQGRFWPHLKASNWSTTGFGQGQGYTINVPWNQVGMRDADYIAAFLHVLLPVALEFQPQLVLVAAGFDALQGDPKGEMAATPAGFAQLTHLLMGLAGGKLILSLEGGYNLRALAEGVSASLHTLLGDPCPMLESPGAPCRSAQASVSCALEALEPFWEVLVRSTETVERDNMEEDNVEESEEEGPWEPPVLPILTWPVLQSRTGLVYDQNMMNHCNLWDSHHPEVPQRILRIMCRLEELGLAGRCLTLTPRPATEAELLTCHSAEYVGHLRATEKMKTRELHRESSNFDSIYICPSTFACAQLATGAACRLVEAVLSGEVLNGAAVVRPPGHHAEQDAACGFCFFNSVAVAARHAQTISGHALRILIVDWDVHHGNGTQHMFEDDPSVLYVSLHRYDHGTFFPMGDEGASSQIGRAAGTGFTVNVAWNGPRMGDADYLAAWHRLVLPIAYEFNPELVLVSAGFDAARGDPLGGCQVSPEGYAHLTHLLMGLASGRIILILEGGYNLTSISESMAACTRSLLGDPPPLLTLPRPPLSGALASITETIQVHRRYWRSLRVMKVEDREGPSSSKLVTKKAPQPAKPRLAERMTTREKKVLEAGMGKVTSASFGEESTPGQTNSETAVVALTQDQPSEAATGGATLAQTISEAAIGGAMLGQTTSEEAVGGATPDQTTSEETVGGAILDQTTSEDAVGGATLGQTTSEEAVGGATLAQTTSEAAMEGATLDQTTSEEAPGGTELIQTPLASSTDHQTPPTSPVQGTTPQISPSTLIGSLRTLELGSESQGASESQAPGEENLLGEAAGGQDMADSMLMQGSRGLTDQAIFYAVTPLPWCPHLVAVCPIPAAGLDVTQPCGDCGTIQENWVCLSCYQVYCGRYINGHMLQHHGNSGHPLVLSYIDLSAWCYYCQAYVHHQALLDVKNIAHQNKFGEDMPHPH
As to the kind of experiment: HDAC6 inhibitor screening kit (Biovision), in vitro inhibitory activity. The class given is biochemical. The protocol:
as §1

Data set [2] concerns mixed cells and primary neurons in rat cortex. The data set is described as follows: Protective effect on HCA-induced neuronal cell damage. The class given is cell-based. As to conditions: HCA 5 mmol/L; test concentration 0.1, 1.0 and 10.0 μM; compared with Tubastatin A at the same dose.
Data set [3] concerns myeloma cell line RPMI 8226. The data set is described as follows: In vitro anti-proliferative activity (CCK8), RPMI 8226. The class given is cell-based. The conditions noted are these: Homo sapiens, RPMI-8226, 48 h, read-out: RPMI 8226 (Myeloma) Inh % in 10 μM.
For data set [4], the system named is human liver cancer cell line HepG2. As to the kind of experiment: In vitro anti-proliferative activity (CCK8), HepG2. The class given is cell-based. The conditions noted are these: read-out: Hep G2 (Liver cancer) Inh % in 10 μM. The protocol:
(§2) The specific results are shown in the table (unit: […] Test method: The tumor cells in the logarithmic growth phase with good growth status were inoculated into 96-well plates at 4×10^3 per well, and 8 duplicate wells were set up in each group. The cells were cultured in a cell incubator, after the cells adhered to the wall, […]. […] The experiment was repeated 3 times, and the average of the experimental results was taken as the final experimental result, and the inhibition rate was calculated.

Data set [5] relates to human lung cancer cell line A549. As to the kind of experiment: In vitro anti-proliferative activity (CCK8), A549. The class given is cell-based. The conditions noted are these: read-out: A549 (Lung cancer) Inh % in 10 μM. As for the experimental part:
as §2

A short description of data set [6]: Maximum tolerance dose by intragastric administration. The conditions noted are these: ICR, mouse, in vivo, po; mice, single intragastric administration, 14 days observation; read-out: maximum tolerated dose. The protocol:
40 ICR mice, half male and half […], weighing 18 to 20 g, were divided into 4 groups with 10 animals in each group. After 6 hours of fasting, the test samples in each group were taken with sterilized plastic syringe and orally gavaged at a volume of 0.3 mL/10 g. The general physical signs of animals and the death of animals were recorded at 1, 2 and 4 hours after administration. […] The dead animals were dissected to observe whether there were any visible pathological changes in the organs of the animals, and pathological examinations were carried out on suspicious tissues and organs.

The subject of data set [7] is myeloma cell line RPMI 8226. The data set is described as follows: In vitro anti-proliferative activity (CCK8), RPMI 8226. The data set is classed as cell-based. The conditions noted are these: Homo sapiens, 48 hours, class symbol, read-out: RPMI 8226 (Myeloma) Inh % in 10 μM. The protocol:
as §2

The mark [8] stands for this setting: 10 μM, 48 hours, CCK8, class symbol.
Setting [9] is: MRC5, 10 μM, 48 hours, CCK8, class symbol.
The mark [10] stands for this setting: HepG2, 10 μM, 48 hours, CCK8, class symbol.
[11] abbreviates: A549, 10 μM, 48 hours, CCK8, class symbol.

Read-outs that look alike come from different tables or passages of the source.

T2 sequence (Q12809 whole entry): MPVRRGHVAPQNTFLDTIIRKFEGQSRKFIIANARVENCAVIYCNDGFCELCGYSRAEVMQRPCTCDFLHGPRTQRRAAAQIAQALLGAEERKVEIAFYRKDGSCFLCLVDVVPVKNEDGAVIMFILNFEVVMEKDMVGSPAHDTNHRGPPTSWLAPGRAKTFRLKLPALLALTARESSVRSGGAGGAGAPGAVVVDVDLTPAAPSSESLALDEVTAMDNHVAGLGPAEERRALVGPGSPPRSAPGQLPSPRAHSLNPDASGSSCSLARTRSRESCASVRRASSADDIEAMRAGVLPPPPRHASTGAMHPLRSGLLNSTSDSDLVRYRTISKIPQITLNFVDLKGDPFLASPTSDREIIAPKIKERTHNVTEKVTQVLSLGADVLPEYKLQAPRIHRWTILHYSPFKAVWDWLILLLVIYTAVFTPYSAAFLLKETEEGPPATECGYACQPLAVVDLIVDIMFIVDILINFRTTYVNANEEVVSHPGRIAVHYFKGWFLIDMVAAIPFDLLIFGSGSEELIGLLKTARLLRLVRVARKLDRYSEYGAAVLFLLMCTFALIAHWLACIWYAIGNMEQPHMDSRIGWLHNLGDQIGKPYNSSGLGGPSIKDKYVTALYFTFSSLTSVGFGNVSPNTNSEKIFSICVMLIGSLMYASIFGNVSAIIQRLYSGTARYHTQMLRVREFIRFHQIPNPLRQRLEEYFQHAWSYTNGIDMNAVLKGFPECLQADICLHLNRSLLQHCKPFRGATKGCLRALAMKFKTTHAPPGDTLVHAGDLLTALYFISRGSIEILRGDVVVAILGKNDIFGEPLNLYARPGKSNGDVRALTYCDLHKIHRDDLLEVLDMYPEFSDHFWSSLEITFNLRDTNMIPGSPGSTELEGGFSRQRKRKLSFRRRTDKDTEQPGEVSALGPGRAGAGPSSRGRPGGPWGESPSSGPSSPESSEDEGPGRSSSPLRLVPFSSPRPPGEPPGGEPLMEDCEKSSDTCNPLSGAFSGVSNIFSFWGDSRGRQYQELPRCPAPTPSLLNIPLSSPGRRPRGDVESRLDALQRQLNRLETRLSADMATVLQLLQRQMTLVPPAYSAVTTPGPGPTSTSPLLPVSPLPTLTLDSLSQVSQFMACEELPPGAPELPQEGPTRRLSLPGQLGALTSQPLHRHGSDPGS
T1 sequence (Q13547 whole entry): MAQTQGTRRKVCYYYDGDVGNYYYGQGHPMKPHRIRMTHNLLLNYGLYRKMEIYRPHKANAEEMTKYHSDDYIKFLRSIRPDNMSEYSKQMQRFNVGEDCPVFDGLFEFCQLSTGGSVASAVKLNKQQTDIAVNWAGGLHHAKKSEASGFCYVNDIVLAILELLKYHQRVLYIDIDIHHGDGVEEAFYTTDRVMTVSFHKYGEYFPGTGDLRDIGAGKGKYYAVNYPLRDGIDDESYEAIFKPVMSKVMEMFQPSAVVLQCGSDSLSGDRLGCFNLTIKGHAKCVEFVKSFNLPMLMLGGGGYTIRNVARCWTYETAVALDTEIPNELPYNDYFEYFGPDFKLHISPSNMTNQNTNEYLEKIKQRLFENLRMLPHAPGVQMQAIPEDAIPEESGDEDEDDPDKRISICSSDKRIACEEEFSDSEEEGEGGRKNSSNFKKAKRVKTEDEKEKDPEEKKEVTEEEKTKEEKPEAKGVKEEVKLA

Turning to `O=C(NO)c1ccc(CN2CCCSc3ccccc32)cc1` [Compound T-16, 4-((3,4-dihydrobenzo[b][1,4]thiazepin-5(2H)-yl)methyl)-N-hydroxybenzamide], the results for the IC50 against HDAC1, against hERG potassium channels and on HDAC6 were 254 nM, greater than 10000 nM and 1.2 nM, respectively. Further, the inhibition at 10 µM with glioma cell line U-87MG (48 h) was 90 to 100%; in data set [1] (MRC5, 48 h), less than 50%; in data set [3], 90 to 100%; in data set [4] (HepG2, 48 h) it was 90 to 100%; in data set [5] (A549, 48 h), 70 to 80%. In addition, the “protective effect against HCA-induced neuronal excitotoxicity (cell survival rate)” value (“protective effect” below) in data set [2] was “stronger than that of the HDAC6 inhibitor compound Tubastatin A”. For the same molecule, in data set [6], the MTD at 14 days was greater than 1000 mg/kg.

Regarding `O=C(CCCCCCNC(=O)c1cnc(N(c2ccccc2)c2ccccc2)nc1)NO` [Rocilinostat (ACY-1215), Rocilinostat, reference compound], the inhibition at 10 µM with glioma cell line U-87MG (48 h) came out at 42.1%; in [1] (MRC5, 48 h), 46.7%; in data set [3], 99.3%; in [4] (HepG2, 48 h) it was 93.4%; in data set [5] (A549, 48 h), 51.6%.

In the case of `COc1ccc2c(c1)CCCCN2Cc1ccc(C(=O)NO)cc1` [Compound T-5, 4-((7-methoxy-2,3,4,5-tetrahydro-1H-benzo[b]azepin-1-yl)methyl)-N-hydroxybenzamide], the IC50 at HDAC1 was 257 nM; against hERG potassium channels, greater than 10000 nM; on HDAC6 it was 5.6 nM. Moreover, the inhibition at 10 µM with glioma cell line U-87MG (setting [8]) was 80 to 90%; in [1] (setting [9]) it was less than 50%; in [7] it was 90 to 100%; in data set [4] (setting [10]) it was 90 to 100%; in [5] (setting [11]) it was 70 to 80%. Besides, the “protective effect” value in [2] is listed as “stronger than that of the HDAC6 inhibitor compound Tubastatin A”. The MTD at 14 days in data set [6] was greater than 1000 mg/kg.

For the molecule `O=C(NO)c1ccc(CN2CCCOc3ccccc32)cc1` [Compound T-15, 4-((3,4-dihydrobenzo[b][1,4]oxazepin-5(2H)-yl)methyl)-N-hydroxybenzamide], the figures for the half-inhibitory concentration (IC50) against HDAC1, at hERG potassium channels and at HDAC6 were 367 nM, greater than 10000 nM and 6.2 nM, respectively. Also, the inhibition at 10 µM is 80 to 90% with glioma cell line U-87MG (setting [8]); less than 50% in data set [1] (setting [9]); 90 to 100% in data set [7]; 90 to 100% in [4] (setting [10]); 50 to 70% in [5] (setting [11]). Besides, the “protective effect” value in [2] is recorded as “stronger than that of the HDAC6 inhibitor compound Tubastatin A”. In addition, the MTD at 14 days in [6] is greater than 1000 mg/kg.

In the case of `O=C(NO)c1ccc(CN2CCCCc3ccc(Cl)cc32)cc1` [Compound T-2, 4-((8-chloro-2,3,4,5-tetrahydro-1H-benzo[b]azepin-1-yl)methyl)-N-hydroxybenzamide], the values for the 50% inhibitory concentration (IC50) on HDAC1, on hERG potassium channels and against HDAC6 were 406 nM, greater than 10000 nM and 14 nM, respectively. In addition, the inhibition at 10 µM with glioma cell line U-87MG (setting [8]) was 80 to 90%; in data set [1] (setting [9]), less than 50%; in [7] it was 90 to 100%; in [4] (setting [10]), 90 to 100%; in data set [5] (setting [11]), 70 to 80%. The “protective effect” value in data set [2] was “stronger than that of the HDAC6 inhibitor compound Tubastatin A”. For the same molecule, the MTD at 14 days in [6] is greater than 1000 mg/kg.

As for `COc1ccc(C2CC2)c2c1CCN(Cc1ccc(C(=O)NO)cc1)CC2` [Compound T-28, 4-((6-cyclopropyl-9-methoxy-1,2,4,5-tetrahydro-3H-benzo[d]azepin-3-yl)methyl)-N-hydroxybenzamide], the concentration for half-maximal inhibition (IC50) against HDAC1 was greater than 500 nM; against hERG potassium channels, greater than 10000 nM; against HDAC6, 22 nM. Also, the inhibition at 10 µM is 80 to 90% with glioma cell line U-87MG (setting [8]); less than 50% in data set [1] (setting [9]); 90 to 100% in data set [7]; 90 to 100% in data set [4] (setting [10]); 50 to 70% in data set [5] (setting [11]). For the same molecule, the “protective effect” value in data set [2] is given as “stronger than that of the HDAC6 inhibitor compound Tubastatin A”. The MTD at 14 days in data set [6] was greater than 1000 mg/kg.

As for `O=C(NO)c1ccc(CN2CCCC(O)c3ccccc32)cc1` (centres unmarked) [Compound T-19, 4-((5-hydroxy-2,3,4,5-tetrahydro-1H-benzo[b]azepin-1-yl)methyl)-N-hydroxybenzamide], the figures for the IC50 on HDAC1, against hERG potassium channels and on HDAC6 were 442 nM, greater than 10000 nM and 6.4 nM, respectively. The inhibition at 10 µM was 90 to 100% in the data set on glioma cell line U-87MG (setting [8]); less than 50% in data set [1] (setting [9]); 90 to 100% in [7]; 90 to 100% in [4] (setting [10]); 50 to 70% in data set [5] (setting [11]). In addition, the “protective effect” value in [2] is “stronger than that of the HDAC6 inhibitor compound Tubastatin A”. The MTD at 14 days in data set [6] is greater than 1000 mg/kg.
